Test results published in US12479827B2, “Heteroaromatic carboxamide derivatives as plasma kallikrein inhibitors” (Boehringer Ingelheim International GmbH, priority 2020, dated 2025).

target: T1, Human PKK (Homo sapiens, UniProt P03952); experiment: Inhibition of PKK using an endpoint assay (human PKK); format: biochemical; settings: fluorogenic substrate H-Pro-Phe-Arg-AMC, 1 h room temperature, method names human or rat PKK, table does not say which
T1 construct: purchased Enzyme Research Laboratories
T1 sequence (P03952 20-390 limits assumed): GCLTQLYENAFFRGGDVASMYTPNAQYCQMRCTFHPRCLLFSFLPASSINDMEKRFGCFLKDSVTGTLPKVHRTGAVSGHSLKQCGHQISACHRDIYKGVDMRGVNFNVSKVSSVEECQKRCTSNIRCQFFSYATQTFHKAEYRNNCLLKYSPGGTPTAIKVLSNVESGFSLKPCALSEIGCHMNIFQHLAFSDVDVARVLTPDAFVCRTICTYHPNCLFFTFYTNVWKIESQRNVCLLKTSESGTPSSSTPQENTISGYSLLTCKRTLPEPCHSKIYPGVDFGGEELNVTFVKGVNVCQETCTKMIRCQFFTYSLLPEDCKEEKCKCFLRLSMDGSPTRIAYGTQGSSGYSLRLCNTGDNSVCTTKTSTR
T1 sequence (P03952 391-638 limits assumed): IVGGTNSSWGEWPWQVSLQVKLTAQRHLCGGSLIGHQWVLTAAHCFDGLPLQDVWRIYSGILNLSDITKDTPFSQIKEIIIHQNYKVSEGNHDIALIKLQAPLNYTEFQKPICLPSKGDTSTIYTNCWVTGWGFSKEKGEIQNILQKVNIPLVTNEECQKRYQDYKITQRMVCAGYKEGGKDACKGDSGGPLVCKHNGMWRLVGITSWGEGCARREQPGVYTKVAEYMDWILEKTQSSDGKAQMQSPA
Description: The ability of compounds of formula (I) to inhibit plasma kallikrein (PKK), Factor XIIa (FXIIa), Factor XIa (FXIa), Factor Xa (FXa), Factor IIa (alpha-thrombin; FIIa), plasmin, trypsin, tissue kallikrein 1 (TK1), Factor VIIa (FVIIa), or FVIIa complexed with Tissue Factor, phospholipids and CaCl2 (FVIIa/TF/PL/CaCl2) is determined using the following biochemical assays in assay buffer (100 mM Tris, 150 mM NaCL, adjusted to a pH of 7.8 with HCl, and containing 0.1% (w/v) BSA and 0.05% (v/v) Tween20) in the presence of 1% (v/v) DMSO:
Subsequently, PPACK II (Calbiochem) is added as a stop solution to achieve a final concentration of 1 μM and fluorescence is measured using an Envision Reader (PerkinElmer) with the wavelength excitation setting of 355 nm and the wavelength emission setting of 460 nm.

| IC50 [nM] | SMILES |
| --- | --- |
| 222 | Cc1nc(N2C[C@@H]3[C@@H](O)[C@@H]3C2)ncc1Cn1cc(C(=O)N[C@@H]2CCc3c2ncn3C)cn1 [Example 236, 1-({2-[(1R,5S,6S)-6-Hydroxy-3-azabicyclo[3.1.0]hexan-3-yl]-4-methylpyrimidin-5-yl}methyl)-N-[(4R)-1-methyl-1H,4H,5H,6H-cyclopenta[d]imidazol-4-yl]-1H-pyrazole-4-carboxamide] |
| 123 | Cc1nc(N2CC3CCCC3C2)ncc1Cn1cc(C(=O)N[C@@H]2CCc3c2ncn3C)cn1 (stereo partly drawn) [Example 239, N-[(4R)-1-Methyl-1H,4H,5H,6H-cyclopenta[d]imidazol-4-yl]-1-[(4-methyl-2-{octahydrocyclopenta[c]pyrrol-2-yl}pyrimidin-5-yl)methyl]-1H-pyrazole-4-carboxamide] |
| 8.1 | Cc1nc(N2CC3(CC3)C2)ncc1Cn1cnc(C(=O)N[C@@H]2CCc3c2ncn3C)c1 [Example 172, 1-[(2-{5-Azaspiro[2.3]hexan-5-yl}-4-methylpyrimidin-5-yl)methyl]-N-[(4R)-1-methyl-1H,4H,5H,6H-cyclopenta[d]imidazol-4-yl]-1H-imidazole-4-carboxamide] |
| 52 | Cc1nc(N2CCC3(CCC3)C2)ncc1Cn1cc(C(=O)N[C@@H]2CCc3c2ncn3C)cn1 [Example 240, 1-[(2-{6-Azaspiro[3.4]octan-6-yl}-4-methylpyrimidin-5-yl)methyl]-N-[(4R)-1-methyl-1H,4H,5H,6H-cyclopenta[d]imidazol-4-yl]-1H-pyrazole-4-carboxamide] |
| 110 | Cc1nc(N2C[C@@H]3[C@@H](C)[C@@H]3C2)ncc1Cn1cc(C(=O)N[C@@H]2CCc3c2ncn3C)cn1 [Example 229, N-[(4R)-1-Methyl-1H,4H,5H,6H-cyclopenta[d]imidazol-4-yl]-1-({4-methyl-2-[(1R,5S,6R)-6-methyl-3-azabicyclo[3.1.0]hexan-3-yl]pyrimidin-5-yl}methyl)-1H-pyrazole-4-carboxamide] |
| 8.3 | Cc1cc(N2CC3CC3C2)ccc1Cn1cnc(C(=O)N[C@@H]2CCc3c2ncn3C)c1 (stereo partly drawn) [Example 205, 1-[(4-{3-azabicyclo[3.1.0]hexan-3-yl}-2-methylphenyl)methyl]-N-[(4R)-1-methyl-1H,4H,5H,6H-cyclopenta[d]imidazol-4-yl]-1H-imidazole-4-carboxamide] |
| 2.8 | COc1nc(N2CC3C(C2)C3(F)F)ccc1Cn1cc(C(=O)N[C@@H]2CCc3c2ncn3C)cn1 (stereo partly drawn) [Example 221, 1-[(6-{6,6-Difluoro-3-azabicyclo[3.1.0]hexan-3-yl}-2-methoxypyridin-3-yl)methyl]-N-[(4R)-1-methyl-1H,4H,5H,6H-cyclopenta[d]imidazol-4-yl]-1H-pyrazole-4-carboxamide] |
| 19.4 | CCc1nc(N2CC3CC3C2)ccc1Cc1ccc(C(=O)N[C@@H]2CCc3c2ncn3C)s1 (stereo partly drawn) [Example 183, 5-[(6-{3-Azabicyclo[3.1.0]hexan-3-yl}-2-ethylpyridin-3-yl)methyl]-N-[(4R)-1-methyl-1H,4H,5H,6H-cyclopenta[d]imidazol-4-yl]thiophene-2-carboxamide] |
| 0.8 | CCc1nc(N2CC3(CC3)C2)ccc1Cc1cc(C(=O)N[C@@H]2CCc3c2ncn3C)on1 [Example 156, 3-[(6-{5-Azaspiro[2.3]hexan-5-yl}-2-ethylpyridin-3-yl)methyl]-N-[(4R)-1-methyl-1H,4H,5H,6H-cyclopenta[d]imidazol-4-yl]-1,2-oxazole-5-carboxamidef] |
| 5.6 | CC(C)Cc1nc(N2CC3CC3C2)ccc1Cn1cnc(C(=O)N[C@@H]2CCc3c2ncn3C)c1 (stereo partly drawn) [Example 100, 1-[(6-{3-Azabicyclo[3.1.0]hexan-3-yl}-2-(2-methylpropyl)pyridin-3-yl)methyl]-N-[(4R)-1-methyl-1H,4H,5H,6H-cyclopenta[d]imidazol-4-yl]-1H-imidazole-4-carboxamide] |
| 512 | Cc1nc(N2CCCC3(CC3)C2)ncc1Cn1cc(C(=O)N[C@@H]2CCc3c2ncn3C)cn1 [Example 232, 1-[(2-{5-Azaspiro[2.5]octan-5-yl}-4-methylpyrimidin-5-yl)methyl]-N-[(4R)-1-methyl-1H,4H,5H,6H-cyclopenta[d]imidazol-4-yl]-1H-pyrazole-4-carboxamide] |
| 111 | Cc1nc(N2CCC3(CC2)CC3)ncc1Cn1cc(C(=O)N[C@@H]2CCc3c2ncn3C)cn1 [Example 237, 1-[(2-{6-Azaspiro[2.5]octan-6-yl}-4-methylpyrimidin-5-yl)methyl]-N-[(4R)-1-methyl-1H,4H,5H,6H-cyclopenta[d]imidazol-4-yl]-1H-pyrazole-4-carboxamide] |
| 13.4 | Cn1cnc2c1CC[C@H]2NC(=O)c1cnn(Cc2cc(C#N)c(N3CC4CC4C3)c(C#N)c2)c1 (stereo partly drawn) [Example 197, 1-[(4-{3-azabicyclo[3.1.0]hexan-3-yl}-3,5-dicyanophenyl)methyl]-N-[(4R)-1-methyl-1H,4H,5H,6H-cyclopenta[d]imidazol-4-yl]-1H-pyrazole-4-carboxamide] |
| 8.6 | Cc1cc(N2CC3CC3C2)c(C#N)cc1Cn1cc(C(=O)N[C@@H]2CCc3c2ncn3C)cn1 (stereo partly drawn) [Example 200, 1-[(4-{3-azabicyclo[3.1.0]hexan-3-yl}-5-cyano-2-methylphenyl)methyl]-N-[(4R)-1-methyl-1H,4H,5H,6H-cyclopenta[d]imidazol-4-yl]-1H-pyrazole-4-carboxamide] |
| 53.7 | Cc1nc(N2CCC3(CC3)C2)ncc1Cn1cc(C(=O)N[C@@H]2CCc3c2ncn3C)cn1 [Example 230, 1-[(2-{5-Azaspiro[2.4]heptan-5-yl}-4-methylpyrimidin-5-yl)methyl]-N-[(4R)-1-methyl-1H,4H,5H,6H-cyclopenta[d]imidazol-4-yl]-1H-pyrazole-4-carboxamide] |
| 14.2 | Cn1cnc2c1CC[C@H]2NC(=O)c1cnn(Cc2ccc(N3CC4(CC4)C3)cn2)c1 [Example 19, 1-[(5-{5-Azaspiro[2.3]hexan-5-yl}pyridin-2-yl)-methyl]-N-[(4R)-1-methyl-1H,4H,5H,6H-cyclopenta[d]imidazol-4-yl]-1H-pyrazole-4-carboxamide] |
| 23.7 | Cc1cc(Cn2cnc(C(=O)N[C@@H]3CCc4c3ncn4C)c2)c(C)nc1N1CC2CC2C1 (stereo partly drawn) [Example 129, 1-[(6-{3-Azabicyclo[3.1.0]hexan-3-yl}-2,5-dimethylpyridin-3-yl)methyl]-N-[(4R)-1-methyl-1H,4H,5H,6H-cyclopenta[d]imidazol-4-yl]-1H-imidazole-4-carboxamide] |
| 214 | Cc1nc(N2C[C@@H]3[C@@H](CO)[C@@H]3C2)ncc1Cn1cc(C(=O)N[C@@H]2CCc3c2ncn3C)cn1 [Example 235, 1-({2-[(1R,5S,6S)-6-(Hydroxymethyl)-3-azabicyclo[3.1.0]hexan-3-yl]-4-methylpyrimidin-5-yl}methyl)-N-[(4R)-1-methyl-1H,4H,5H,6H-cyclopenta[d]imidazol-4-yl]-1H-pyrazole-4-carboxamide] |
| 22.1 | Cc1nc(N2CC3C(C2)C3(F)F)ccc1Cc1ccc(C(=O)N[C@@H]2CCc3c2ncn3C)o1 (stereo partly drawn) [Example 189, 5-[(6-{6,6-Difluoro-3-azabicyclo[3.1.0]hexan-3-yl}-2-methylpyridin-3-yl)methyl]-N-[(4R)-1-methyl-1H,4H,5H,6H-cyclopenta[d]imidazol-4-yl]furan-2-carboxamide] |
| 2.5 | Cn1cnc2c1CC[C@H]2NC(=O)c1cnn(Cc2ccc(N3CC4CC4C3)nc2OC(F)(F)F)c1 (stereo partly drawn) [Example 58, 1-[(6-{3-Azabicyclo[3.1.0]hexan-3-yl}-2-(trifluoromethoxy)-pyridin-3-yl)methyl]-N-[(4R)-1-methyl-1H,4H,5H,6H-cyclopenta[d]imidazol-4-yl]-1H-pyrazole-4-carboxamide] |
| 4.2 | Cn1cnc2c1CC[C@H]2NC(=O)c1cn(Cc2ccc(N3CC4C(C3)C4(F)F)nc2)c(Cl)n1 (stereo partly drawn) [Example 176, 2-Chloro-1-[(6-{6,6-difluoro-3-azabicyclo-[3.1.0]hexan-3-yl}pyridin-3-yl)methyl]-N-[(4R)-1-methyl-1H,4H,5H,6H-cyclopenta[d]imidazol-4-yl]-1H-imidazole-4-carboxamide] |
| 126 | Cc1nc(N2CC3C(C2)C3(C)C)ncc1Cn1cc(C(=O)N[C@@H]2CCc3c2ncn3C)cn1 (stereo partly drawn) [Example 228, 1-[(2-{6,6-Dimethyl-3-azabicyclo[3.1.0]hexan-3-yl}-4-methylpyrimidin-5-yl)methyl]-N-[(4R)-1-methyl-1H,4H,5H,6H-cyclopenta[d]imidazol-4-yl]-1H-pyrazole-4-carboxamide] |
| 123 | Cc1nc(N2CC3CCC3C2)ncc1Cn1cc(C(=O)N[C@@H]2CCc3c2ncn3C)cn1 (stereo partly drawn) [Example 238, 1-[(2-{3-Azabicyclo[3.2.0]heptan-3-yl}-4-methylpyrimidin-5-yl)methyl]-N-[(4R)-1-methyl-1H,4H,5H,6H-cyclopenta[d]imidazol-4-yl]-1H-pyrazole-4-carboxamide] |
| 7540 | Cc1nc(N2CCC3(CC2)CC(C)(O)C3)ncc1Cn1cc(C(=O)N[C@@H]2CCc3c2ncn3C)cn1 [Example 223, 1-[(2-{2-Hydroxy-2-methyl-7-azaspiro[3.5]nonan-7-yl}-4-methylpyrimidin-5-yl)methyl]-N-[(4R)-1-methyl-1H,4H,5H,6H-cyclopenta[d]imidazol-4-yl]-1H-pyrazole-4-carboxamide] |
| 232 | Cc1nc(N2C[C@@]3(C)C[C@@]3(C)C2)ncc1Cn1cc(C(=O)N[C@@H]2CCc3c2ncn3C)cn1 [Example 225, 1-({2-[(1R,5S)-1,5-Dimethyl-3-azabicyclo[3.1.0]hexan-3-yl]-4-methylpyrimidin-5-yl}methyl)-N-[(4R)-1-methyl-1H,4H,5H,6H-cyclopenta[d]imidazol-4-yl]-1H-pyrazole-4-carboxamide] |
